Laboratory results reported in ChEMBL document CHEMBL1201862, “PubChem BioAssay data set” (2004).
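Results reflect a 48-hour exposure of cells in 96-well plates to compound at five concentrations. Here, GI50 denotes the concentration required for 50% inhibition of growth.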 Active and inactive are the calls of the source. Rule as the data show it: active = GI50 up to about 1.1 µM and inactive = higher.

Key:
Test in all cases: inhibition of tumour cell growth, NCI panel, 48 h
HT-29 = tested on: HT-29
IGROV-1 = tested on: IGROV-1
HOP-62 = tested on: HOP-62
UACC-62 = tested on: UACC-62
Malme-3M = tested on: Malme-3M
ACHN = tested on: ACHN
RPMI-8226 = tested on: RPMI-8226
KM12 = tested on: KM12
MDA-N = tested on: MDA-N
K562 = tested on: K562
HL-60 = tested on: HL-60
SK-MEL-28 = tested on: SK-MEL-28
OVCAR-8 = tested on: OVCAR-8
CAKI-1 = tested on: CAKI-1
OVCAR-3 = tested on: OVCAR-3
SK-MEL-5 = tested on: SK-MEL-5
SK-OV-3 = tested on: SK-OV-3
HOP-92 = tested on: HOP-92
SR = tested on: SR
HCT-15 = tested on: HCT-15
UACC-257 = tested on: UACC-257
MDA-MB-231 = tested on: MDA-MB-231
NCI/ADR-RES = tested on: NCI/ADR-RES
SW-620 = tested on: SW-620
DU-145 = tested on: DU-145
BT-549 = tested on: BT-549
T47D = tested on: T47D
NCI-H23 = tested on: NCI-H23
PC-3 = tested on: PC-3
TK-10 = tested on: TK-10
EKVX = tested on: EKVX
COLO 205 = tested on: COLO 205
MDA-MB-435 = tested on: MDA-MB-435
OVCAR-4 = tested on: OVCAR-4
MCF7 = tested on: MCF7
SK-MEL-2 = tested on: SK-MEL-2
HCT-116 = tested on: HCT-116
NCI-H226 = tested on: NCI-H226
A549 = tested on: A549
SNB-19 = tested on: SNB-19
Hs-578T = tested on: Hs-578T
MOLT-4 = tested on: MOLT-4
SF-539 = tested on: SF-539
OVCAR-5 = tested on: OVCAR-5
UO-31 = tested on: UO-31
U-251 = tested on: U-251
HCC 2998 = tested on: HCC 2998
LOX IMVI = tested on: LOX IMVI
SN12C = tested on: SN12C
RXF 393 = tested on: RXF 393
NCI-H460 = tested on: NCI-H460
SF-295 = tested on: SF-295
M14 = tested on: M14
CCRF-CEM = tested on: CCRF-CEM
786-0 = tested on: 786-0
SF-268 = tested on: SF-268
SNB-75 = tested on: SNB-75
NCI-H522 = tested on: NCI-H522

With `COc1cc2c(cc1OC)C(=O)/C(=C/c1ccc(O)cc1)CC2` the GI50 (HT-29) was > 10 µM (inactive), the GI50 (IGROV-1) was > 10 µM (inactive) and the GI50 (HOP-62) was > 10 µM (inactive). For the same compound, the GI50 (UACC-62) was > 10 µM (inactive), the GI50 (Malme-3M) was > 10 µM (inactive) and the GI50 (ACHN) was > 10 µM (inactive). For the same compound, the GI50 (RPMI-8226) was > 10 µM (inactive), the GI50 (KM12) was > 10 µM (inactive) and the GI50 (MDA-N) was > 10 µM (inactive). The GI50 (K562) was > 10 µM (inactive), the GI50 (HL-60) was 7.31 µM (inactive) and the GI50 (SK-MEL-28) was > 10 µM (inactive). For the same compound, the GI50 (OVCAR-8) was > 10 µM (inactive), the GI50 (CAKI-1) was 5.82 µM (inactive) and the GI50 (OVCAR-3) was > 10 µM (inactive). For the same compound, the GI50 (SK-MEL-5) was > 10 µM (inactive), the GI50 (SK-OV-3) was > 10 µM (inactive) and the GI50 (HOP-92) was > 10 µM (inactive). The GI50 (SR) was > 10 µM (inactive), the GI50 (HCT-15) was > 10 µM and the GI50 (UACC-257) was > 10 µM (inactive). For the same compound, the GI50 (MDA-MB-231) was > 10 µM (inactive), the GI50 (NCI/ADR-RES) was > 10 µM (inactive) and the GI50 (SW-620) was > 10 µM (inactive). For the same compound, the GI50 (DU-145) was > 10 µM (inactive), the GI50 (BT-549) was > 10 µM (inactive) and the GI50 (T47D) was > 10 µM (inactive). The GI50 (NCI-H23) was > 10 µM (inactive), the GI50 (PC-3) was > 10 µM (inactive) and the GI50 (TK-10) was > 10 µM (inactive). The GI50 (EKVX) was > 10 µM (inactive), the GI50 (COLO 205) was > 10 µM (inactive) and the GI50 (MDA-MB-435) was > 10 µM (inactive). For the same compound, the GI50 (OVCAR-4) was > 10 µM (inactive), the GI50 (MCF7) was > 10 µM (inactive) and the GI50 (SK-MEL-2) was > 10 µM (inactive). For the same compound, the GI50 (HCT-116) was > 10 µM (inactive), the GI50 (NCI-H226) was > 10 µM (inactive) and the GI50 (A549) was > 10 µM (inactive). For the same compound, the GI50 (SNB-19) was > 10 µM (inactive), the GI50 (Hs-578T) was > 10 µM (inactive) and the GI50 (MOLT-4) was > 10 µM (inactive). For the same compound, the GI50 (SF-539) was > 10 µM (inactive), the GI50 (OVCAR-5) was > 10 µM (inactive) and the GI50 (UO-31) was 2.34 µM (inactive). The GI50 (U-251) was > 10 µM (inactive), the GI50 (HCC 2998) was > 10 µM (inactive) and the GI50 (LOX IMVI) was > 10 µM (inactive). For the same compound, the GI50 (SN12C) was > 10 µM (inactive), the GI50 (RXF 393) was > 10 µM (inactive) and the GI50 (NCI-H460) was > 10 µM (inactive). For the same compound, the GI50 (SF-295) was > 10 µM (inactive), the GI50 (M14) was > 10 µM (inactive) and the GI50 (CCRF-CEM) was 1.97 µM (inactive). For the same compound, the GI50 (786-0) was > 10 µM (inactive) and the GI50 (SF-268) was > 10 µM (inactive).

`CC(C)C1CC[C@H](C)C[C@@H]1OC(=O)C(C(=O)O[C@H]1C[C@@H](C)CCC1C(C)C)C(O)[C@@H]1OC(C)(C)O[C@H]1C1COC(C)(C)O1` (stereo partly drawn) was tested, and the GI50 (HT-29) was 13.4 µM (inactive), the GI50 (IGROV-1) was 16.8 µM (inactive) and the GI50 (HOP-62) was 19.7 µM (inactive). The GI50 (UACC-62) was 18.8 µM (inactive), the GI50 (Malme-3M) was 17.1 µM (inactive) and the GI50 (ACHN) was 16.6 µM (inactive). The GI50 (RPMI-8226) was 16.7 µM (inactive), the GI50 (KM12) was 16.6 µM (inactive) and the GI50 (MDA-N) was 18.5 µM (inactive). The GI50 (K562) was 11.1 µM (inactive), the GI50 (HL-60) was 16.7 µM (inactive) and the GI50 (SK-MEL-28) was 18.3 µM (inactive). The GI50 (OVCAR-8) was 21 µM (inactive), the GI50 (CAKI-1) was 16.3 µM (inactive) and the GI50 (OVCAR-3) was 19.9 µM (inactive). The GI50 (SK-MEL-5) was 15.8 µM (inactive), the GI50 (SK-OV-3) was 26.8 µM (inactive) and the GI50 (SR) was 9.62 µM (inactive). The GI50 (HCT-15) was 20.7 µM, the GI50 (UACC-257) was 24.6 µM (inactive) and the GI50 (MDA-MB-231) was 17 µM (inactive). For the same compound, the GI50 (NCI/ADR-RES) was 20.4 µM (inactive), the GI50 (SW-620) was 14.2 µM (inactive) and the GI50 (DU-145) was 18.8 µM (inactive). For the same compound, the GI50 (BT-549) was 19 µM (inactive), the GI50 (T47D) was 13.1 µM (inactive) and the GI50 (NCI-H23) was 13.4 µM (inactive). For the same compound, the GI50 (PC-3) was > 10 µM (inactive), the GI50 (TK-10) was 20 µM (inactive) and the GI50 (EKVX) was 20.8 µM (inactive). The GI50 (COLO 205) was 13.6 µM (inactive), the GI50 (MDA-MB-435) was 16.6 µM (inactive) and the GI50 (OVCAR-4) was 26 µM (inactive). For the same compound, the GI50 (MCF7) was 8.13 µM (inactive), the GI50 (SK-MEL-2) was 19.4 µM (inactive) and the GI50 (HCT-116) was 11.7 µM (inactive). For the same compound, the GI50 (NCI-H226) was 23.8 µM (inactive), the GI50 (A549) was 22.3 µM (inactive) and the GI50 (SNB-19) was 16.3 µM (inactive). For the same compound, the GI50 (Hs-578T) was 15 µM (inactive), the GI50 (MOLT-4) was 10.7 µM (inactive) and the GI50 (SF-539) was 26.8 µM (inactive). For the same compound, the GI50 (OVCAR-5) was 17.3 µM (inactive), the GI50 (UO-31) was 17.3 µM (inactive) and the GI50 (SNB-75) was 15.7 µM (inactive). For the same compound, the GI50 (U-251) was 14.2 µM (inactive), the GI50 (HCC 2998) was 13.8 µM (inactive) and the GI50 (LOX IMVI) was 16.8 µM (inactive). The GI50 (SN12C) was 16.5 µM (inactive), the GI50 (RXF 393) was 14.7 µM (inactive) and the GI50 (NCI-H460) was 15 µM (inactive). The GI50 (SF-295) was 16.1 µM (inactive), the GI50 (M14) was 19 µM (inactive) and the GI50 (CCRF-CEM) was 15 µM (inactive). The GI50 (NCI-H522) was 1.58 µM (inactive), the GI50 (786-0) was 16.6 µM (inactive) and the GI50 (SF-268) was 19.9 µM (inactive).
